Source: ChEMBL document CHEMBL5726597, “TrkA kinase inhibitors, compositions and methods thereof” (2017)

Target: High affinity nerve growth factor receptor (Homo sapiens, UniProt P04629)
Assay: Functional Activity Assay: TrkA functional activity was measured using a DiscoverX PathHunter assay. In this assay, U2OS cells express the human TrkA receptor as a fusion with the weakly complementing fragment of B-galactosidase, which DiscoverX calls “Prolink (PK)”; additionally, Shcl is fused with a larger fragment, which is called “Enzyme Acceptor (EA)”. Activation of the TrkA receptor, upon NGF addition, results in the kinase domain being phosphorylated, resulting in subsequent recruitment of Shcl-EA protein. That recruitment results in an active B-galactosidase enzyme that is detected by addition of a chemiluminescent substrate. The human p75NTR protein was also expressed as a co-receptor for NGF.All reagents were purchased from DiscoverX, except for the receptor agonists (NGF, BDNF, NT3) which were purchased from Peprotech. Cells were expanded and frozen into cryovials, and stored in the vapor phase of liquid nitrogen, and thawed immediately before use. Thawed cells were added to a 384-well plate at 7500 cells/well, and allowed to incubate overnight. Compound at various concentrations was added the following morning and allowed to incubate on cells for 1 h. Then, NGF was added at a concentration sufficient to elicit ˜80% of a maximal response and allowed to incubate for 3 h at ambient temperature.

High affinity nerve growth factor receptor, sequence (P04629 whole entry, the tested form may be a part): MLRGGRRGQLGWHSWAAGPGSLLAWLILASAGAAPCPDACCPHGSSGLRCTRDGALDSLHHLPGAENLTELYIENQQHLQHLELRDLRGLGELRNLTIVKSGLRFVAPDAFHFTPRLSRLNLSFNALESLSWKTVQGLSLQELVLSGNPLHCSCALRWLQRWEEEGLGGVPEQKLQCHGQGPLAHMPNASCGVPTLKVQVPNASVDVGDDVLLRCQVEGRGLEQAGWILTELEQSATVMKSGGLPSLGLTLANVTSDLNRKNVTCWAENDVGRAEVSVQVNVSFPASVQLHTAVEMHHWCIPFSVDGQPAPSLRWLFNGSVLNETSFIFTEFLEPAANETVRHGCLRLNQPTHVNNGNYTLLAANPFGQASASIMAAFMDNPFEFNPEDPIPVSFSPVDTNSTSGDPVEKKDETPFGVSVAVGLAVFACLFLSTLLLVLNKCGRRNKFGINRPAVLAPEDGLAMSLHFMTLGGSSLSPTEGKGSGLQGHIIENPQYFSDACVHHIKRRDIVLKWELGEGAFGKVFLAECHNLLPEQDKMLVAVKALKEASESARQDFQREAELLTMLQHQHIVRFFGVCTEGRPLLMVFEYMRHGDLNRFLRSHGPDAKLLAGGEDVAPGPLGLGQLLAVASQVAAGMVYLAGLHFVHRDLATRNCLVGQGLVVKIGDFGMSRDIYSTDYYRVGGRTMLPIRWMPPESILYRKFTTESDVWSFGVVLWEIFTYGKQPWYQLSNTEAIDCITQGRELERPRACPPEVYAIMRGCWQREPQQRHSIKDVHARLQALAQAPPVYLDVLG

IC50: 1 nM
SMILES: Cc1ncc(NC(=O)c2cc(-c3ccn(C)n3)c(C(F)(F)F)cc2F)c(-c2ccccc2)n1
